Measurements from article PMC5047629, “Synthesis, Pharmacological Profile and Docking Studies of New Sulfonamides Designed as Phosphodiesterase-4 Inhibitors” (PLoS ONE, 2016).

Columns and labels:
PDE4A = biological target: T1, PDE4A (Homo sapiens, UniProt P27815); assay: PDE4A inhibition, IMAP fluorescence polarization protocol; format: biochemical
T1 construct: purchased MDS PHARMA
Experimental: (§1) The enzymatic reactions were carried at room temperature in a 96-well black plate by co-incubating 25 μL of 200 nM FAM-cAMP (R7513), 5 μL of putative inhibitory compounds and 20 μL of the PDE4 isoform dissolved in assay buffer (R7364) for 1 h. All enzymes were obtained from human recombinant sources (MDS PHARMA), whereas the other reagents were purchased from Molecular Devices. […] PDE4 inhibitors were dissolved in dimethyl sulfoxide (DMSO) at a final concentration of 0.1%.
(§2) The inhibitory activities of the new sulfonamide derivatives were evaluated for their selectivity against the four isoforms of human PDE4, i.e. PDE4A, PDE4B, PDE4C, and PDE4D, using an IMAP-FP protocol.

PDE4C = biological target: T2, PDE4C (Homo sapiens, UniProt Q08493); assay: PDE4C inhibition, IMAP fluorescence polarization protocol; format: biochemical
T2 construct: purchased MDS PHARMA
T2 sequence (Q08493 whole entry): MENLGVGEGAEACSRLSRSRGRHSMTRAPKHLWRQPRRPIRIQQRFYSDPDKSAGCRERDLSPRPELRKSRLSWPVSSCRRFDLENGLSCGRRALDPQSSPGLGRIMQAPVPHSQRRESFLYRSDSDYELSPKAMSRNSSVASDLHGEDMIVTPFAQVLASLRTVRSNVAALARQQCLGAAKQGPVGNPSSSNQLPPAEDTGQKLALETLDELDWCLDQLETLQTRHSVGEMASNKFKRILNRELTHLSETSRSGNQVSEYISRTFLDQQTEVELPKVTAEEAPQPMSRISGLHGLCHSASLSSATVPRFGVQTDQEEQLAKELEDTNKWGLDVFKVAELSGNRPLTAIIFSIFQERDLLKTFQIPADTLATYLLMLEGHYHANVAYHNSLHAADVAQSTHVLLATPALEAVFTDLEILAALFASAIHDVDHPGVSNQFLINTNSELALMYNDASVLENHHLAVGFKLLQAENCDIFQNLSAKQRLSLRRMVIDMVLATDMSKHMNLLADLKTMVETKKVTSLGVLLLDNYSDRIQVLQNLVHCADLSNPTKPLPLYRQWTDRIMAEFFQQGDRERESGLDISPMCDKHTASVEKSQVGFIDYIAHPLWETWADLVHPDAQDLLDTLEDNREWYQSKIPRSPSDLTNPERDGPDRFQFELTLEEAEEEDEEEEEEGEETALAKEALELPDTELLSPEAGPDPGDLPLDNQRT
Experimental: as §1, §2

[1] = 1 μM, mean ± SEM, 3 experiments
[2] = recombinant enzyme, mean ± SEM of three measurements

T1 sequence (P27815 1-647 isoform P27815-4): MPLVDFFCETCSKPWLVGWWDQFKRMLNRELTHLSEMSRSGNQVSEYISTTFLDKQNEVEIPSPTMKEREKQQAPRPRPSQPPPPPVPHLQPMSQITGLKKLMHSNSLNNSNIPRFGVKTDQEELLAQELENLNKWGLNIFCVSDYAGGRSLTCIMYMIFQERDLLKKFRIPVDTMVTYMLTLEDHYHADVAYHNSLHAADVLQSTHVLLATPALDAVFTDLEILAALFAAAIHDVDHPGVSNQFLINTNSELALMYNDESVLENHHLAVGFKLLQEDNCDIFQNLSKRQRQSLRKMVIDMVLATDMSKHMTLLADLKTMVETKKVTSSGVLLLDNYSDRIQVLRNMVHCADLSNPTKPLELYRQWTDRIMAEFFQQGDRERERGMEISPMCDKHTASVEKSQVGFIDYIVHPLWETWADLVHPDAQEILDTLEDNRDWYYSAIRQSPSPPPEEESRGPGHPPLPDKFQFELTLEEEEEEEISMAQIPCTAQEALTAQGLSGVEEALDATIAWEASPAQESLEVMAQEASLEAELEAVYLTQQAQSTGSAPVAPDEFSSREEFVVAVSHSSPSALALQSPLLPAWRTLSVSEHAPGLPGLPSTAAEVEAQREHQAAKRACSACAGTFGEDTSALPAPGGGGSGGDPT

- PDE4A1A inhibition (PDE4A; [1]): able to inhibit
- inhibition at 1 µM (PDE4A; 1 μM, mean ± SEM, 3 experiments, read-out: PDE4A1A inhibition): 36.5 ± 0.7%
- IC50 (PDE4A; [2]): 0.7 ± 0.07 µM
- PDE4C inhibition (PDE4C; [1]): able to inhibit
- inhibition at 1 µM (PDE4C; [1]): 33.7 ± 0.4%
- IC50 (PDE4C; [2]): 1.1 ± 0.13 µM
Structure (SMILES): COc1ccc(CCNS(=O)(=O)c2cc3c(cc2C)OCO3)cc1OC [6a (LASSBio-448), N-(3,4-dimethoxyphenethyl)-6-methylbenzo[d][1, 3]dioxole-5-sulfonamide]
